Measured values: patent publication US8795978B2, “Modulating latency and reactivation of Mycobacterium tuberculosis” (priority 2007, dated 2014)
Like-named read-outs stand apart in the source and are kept apart here.

Experiments:
DosT [1] = molecular target: T1, DosT (Mycobacterium tuberculosis, UniProt P9WGK1); format: binding; settings: for binding to DosT heme iron (nitrosylated / carbonylated heme formation): deoxy DosT (DTH treated), UV-visible and EPR spectroscopy; for binding to DosT heme iron in the presence of O2: oxy DosT (Fe2+-O2)
T1 sequence (P9WGK1 whole entry): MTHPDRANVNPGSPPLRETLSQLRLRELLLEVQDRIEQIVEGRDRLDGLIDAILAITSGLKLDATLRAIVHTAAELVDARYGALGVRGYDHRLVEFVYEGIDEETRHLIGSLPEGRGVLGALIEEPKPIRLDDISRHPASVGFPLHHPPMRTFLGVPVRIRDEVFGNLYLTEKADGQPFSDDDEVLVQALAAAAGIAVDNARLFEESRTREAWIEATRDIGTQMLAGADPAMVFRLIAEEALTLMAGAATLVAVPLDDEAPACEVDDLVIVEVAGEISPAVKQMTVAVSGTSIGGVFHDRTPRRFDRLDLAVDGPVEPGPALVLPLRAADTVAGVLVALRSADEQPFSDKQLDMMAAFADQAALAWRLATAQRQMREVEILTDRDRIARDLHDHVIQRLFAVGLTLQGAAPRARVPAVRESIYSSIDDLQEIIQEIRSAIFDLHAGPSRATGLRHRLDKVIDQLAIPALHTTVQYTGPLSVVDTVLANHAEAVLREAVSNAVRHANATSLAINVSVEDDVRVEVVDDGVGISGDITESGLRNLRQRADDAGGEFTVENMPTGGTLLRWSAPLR

DosS [2] = molecular target: T2, DosS (Mycobacterium tuberculosis, UniProt P9WGK3); format: binding; settings: for binding to DosS heme iron (heme-nitrosyl / heme-carbonyl formation): ferrous DosS (DTH treated), UV-visible and EPR spectroscopy
T2 sequence (P9WGK3 whole entry): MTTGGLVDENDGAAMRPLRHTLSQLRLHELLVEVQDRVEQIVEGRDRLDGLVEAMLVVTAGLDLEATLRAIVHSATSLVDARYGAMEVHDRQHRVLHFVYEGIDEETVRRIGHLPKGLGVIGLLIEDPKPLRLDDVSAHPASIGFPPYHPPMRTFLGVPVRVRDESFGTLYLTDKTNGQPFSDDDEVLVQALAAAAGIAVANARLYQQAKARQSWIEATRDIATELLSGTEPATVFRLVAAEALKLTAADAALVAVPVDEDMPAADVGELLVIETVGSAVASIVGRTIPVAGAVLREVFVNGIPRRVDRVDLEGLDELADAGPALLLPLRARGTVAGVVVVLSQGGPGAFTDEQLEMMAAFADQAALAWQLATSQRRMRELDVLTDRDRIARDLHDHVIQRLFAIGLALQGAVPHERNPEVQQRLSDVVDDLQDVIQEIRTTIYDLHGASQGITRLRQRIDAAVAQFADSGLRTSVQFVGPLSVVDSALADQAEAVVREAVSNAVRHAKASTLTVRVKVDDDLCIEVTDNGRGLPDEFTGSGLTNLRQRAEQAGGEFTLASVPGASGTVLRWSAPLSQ

DosT [3] = molecular target: T1, DosT; format: biochemical
Method: (§1) In-vitro phosphorylation assays were performed according to previously described methods (Roberts et al., J. Biol. Chem., 2004, 279:22) and analyzed on 4-20% Tris-HCl gradient PAGE gels, dried and exposed to X-ray film overnight at −80° C. Formation of a heme-nitrosyl/carbonyl complex was first confirmed by absorption spectroscopy before analyzing samples for autokinase activity. As an additional control, air exposed samples were also treated with proline NONOate. The effect of CO on autokinase activity was measured similarly as described for NO, except that protein samples were flushed with 100% CO for 30 seconds. All autokinase reactions were performed inside the glove box.

DosS [4] = molecular target: T2, DosS; format: biochemical
Method: as §1

[5] = DTH reduced DosS (Fe2+) exposed to ligand, relative to met DosS

[C-]#[O+] [CO, carbon monoxide]
binding to DosT heme iron (nitrosylated / carbonylated heme formation) (DosT [1]): highly characteristic of the formation of nitrosylated and carbonylated heme species
binding to DosT heme iron in the presence of O2 (DosT [1]): highly indicative of a heme-carbonyl complex
binding to DosS heme iron (heme-nitrosyl / heme-carbonyl formation) (DosS [2]): generated heme-nitrosyl and heme-carbonyl DosS species
rank of DosT autokinase activity (DosT [3]; deoxy DosT (DTH reduced) treated with ligand vs untreated): deoxy DosT showed the highest autokinase activity, followed by CO-DosT and finally oxy DosT
effect on DosT autokinase activity (DosT [3]; oxy DosT treated with ligand on the bench): significantly enhanced autokinase activity compared to inactive oxy DosT
effect on DosS autokinase activity (DosS [4]; [5]): significantly increased autokinase activity as compared to inactive met DosS
effect on DosS autokinase activity (DosS [4]; met DosS (Fe3+) exposed to ligand): found not to generate any further autokinase activity

[N]=O [NO, nitric oxide]
binding to DosT heme iron (nitrosylated / carbonylated heme formation) (DosT [1]): binds deoxy DosT
binding to DosT heme iron in the presence of O2 (DosT [1]): but not NO can effectively substitute O2 from oxy DosT
binding to DosS heme iron (heme-nitrosyl / heme-carbonyl formation) (DosS [2]): binds DosS
effect on DosT autokinase activity (DosT [3]; ligand bound to DosT, compared with deoxy or oxy DosT): significantly increased autokinase activity as compared to inactive oxy DosT
effect on DosS autokinase activity (DosS [4]; [5]): significantly increased autokinase activity to levels comparable to active ferrous DosS autokinase activity

O=O [O2, oxygen]
state of DosT heme iron after air exposure (DosT [1]): air exposed DosT is in the oxygen bound (oxy) form
effect on DosS heme iron oxidation state (DosS [2]): rapidly oxidized by O2 to generate met DosS
effect on DosT autokinase activity (DosT [3]): inhibits autokinase activity
effect on DosS autokinase activity (DosS [4]): dramatically decreases its autokinase activity

O=C([O-])[C@@H]1CCCN1/[N+]([O-])=N/[O-].[Na+].[Na+] [proline NONOate]
binding to DosT heme iron in the presence of O2 (DosT [1]): did not generate any detectable nitrosyl-heme species
binding to DosS heme iron (nitrosyl-heme EPR signal) (DosS [2]; air exposed (met, Fe3+) DosS): no EPR signal characteristic of a nitrosyl-heme species was generated
